{
  "source": "patent US11007148B2",
  "about": "“Amphiphilic block copolymers for delivery of active agents” (priority 2014, dated 2021)",
  "key": {"[1]": {"conditions": "free drug; cited from earlier work"}, "[2]": {"conditions": "mouse, in vivo", "source_text": "In this example the kinetic properties of loaded micelles with PTX are studied in vivo using the fluorophore labels Cy7 and Cy5.5. Cy7 was covalently linked to the polymer chain and reports about the fate of the injected micelles; Cy5.5 was physically loaded in the core of the micelles and used as a modal drug.\nCD-1 nude female mice (n=5) were fed with chlorophyll-free food pellets and water ad libitum, and caged in ventilated cages and clinically controlled rooms and atmosphere."}},
  "note": "Where a name gives a salt, the structure may show the parent alone.",
  "data": [
    {"compound": "COc1nc2ccc(Br)cc2cc1[C@@H](c1ccccc1)[C@@](O)(CCN(C)C)c1cccc2ccccc12", "note": "[Bedaquiline]", "values": [
      {"measurement": "Log P", "setting": "[1]", "value": 7.59}
    ]},
    {"compound": "C[C@H](NC(=O)Cc1cc(F)cc(F)c1)C(=O)N[C@H](C(=O)OC(C)(C)C)c1ccccc1", "note": "[DAPT]", "values": [
      {"measurement": "Log P", "setting": "[1]", "value": 3.54}
    ]},
    {"compound": "COc1cccc2c1C(=O)c1c(O)c3c(c(O)c1C2=O)C[C@@](O)(C(=O)CO)C[C@@H]3O[C@H]1C[C@H](N)[C@H](O)[C@H](C)O1", "note": "[DOX•HCl, doxorubicin hydrochloride]", "values": [
      {"measurement": "Log P", "setting": "[1]", "value": 2.82}
    ]},
    {"compound": "CC(=O)O[C@H]1C(=O)[C@@]2(C)[C@H]([C@H](OC(=O)c3ccccc3)[C@]3(O)C[C@H](OC(=O)[C@H](O)[C@@H](NC(=O)c4ccccc4)c4ccccc4)C(C)=C1C3(C)C)[C@]1(OC(C)=O)CO[C@@H]1C[C@@H]2O", "note": "[Paclitaxel]", "values": [
      {"measurement": "Log P", "setting": "[1]", "value": 4.7}
    ]},
    {"compound": "Cy5.5", "values": [
      {"measurement": "half-life of the Cy5.5 label relative to the micelles", "setting": "[2]", "value": "shorter half-life"}
    ]}
  ]
}
